The record followed here is paper PMC11582173, “Synthesis, cytotoxicity, anti-inflammatory, anti-metastatic and anti-oxidant activities of novel chalcones incorporating 2-phenoxy-N-arylacetamide and thiophene moieties: induction of apoptosis in MCF7 and HEP2 cells” (Naunyn-Schmiedeberg's Archives of Pharmacology, 2024).

The assay has as its system AKT1 gene. Nature of the assay: Real-time PCR, AKT1 gene expression. The class given is cell-based, human. As to conditions: relative to untreated control (1). The procedure: The expression level of the following six genes (Ki-67, Survivin, Interleukin-1 beta (IL-1B), Interleukin-6 (IL-6), Cyclooxygenase-2 (COX-2) and protein kinase B (AKT1)) was determined in MCF7 and HEP2 treated with the IC50 of compound 5c. The untreated cells were used as a negative control for comparison purposes. […] Ki-67 is a popular proliferation marker for human tumor cells. […] Survivin is an inhibitor of apoptotic protein (IAP) family member, which is essential for cell division. The lowering of the expression of survivin inhibited tumor development, triggered apoptosis, and made tumor cells more susceptible to radiation and chemotherapy (Albadari and Li [2023]). […] IL-1B is a pleiotropic mediator of inflammation, which is produced in response to a variety of stressors (Aarreberg et al. [2019]). […] IL-6 is a pro-inflammatory cytokine that plays a significant role in the proliferation and differentiation of human cells. It promotes the production of numerous proteins involved in acute inflammation (Uciechowski and Dempke [2020]). […]
The expression level of the following six genes (Ki-67, survivin, AKT1, IL-6, COX2, and IL-1B) was examined using real-time polymerase chain reaction (qPCR) (Mohamed et al. [2023a]). […] The cycle threshold (Ct) was determined automatically. […]
In general terms: Real-time PCR tracks product formation cycle by cycle.

As to `COc1ccc(NC(=O)COc2ccc(C=CC(=O)c3cccs3)cc2)cc1` [Compound 5c, N-(4-Methoxyphenyl)-2-(4-(3-oxo-3-(thiophen-2-yl)prop-1-en-1-yl)phenoxy)acetamide], the AKT1 expression folding by setting is: (HEP2 cells treated with IC50 of 5c) 0.381±0.011 fold; (MCF7 cells treated with IC50 of 5c) 0.402±0.068 fold.
